Assay results: PubChem BioAssay (NCI)
Values joined by “and” are separate entries in the source; they are usually repeats but may differ in a detail not shown here. Equal entries are not always repeated.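 Interpolation was linear, between the two tested concentrations surrounding the appropriate level; five concentrations were tested over 48 hours in 96-well plates. GI50 is the concentration that inhibits growth by half. TGI is the concentration that stops growth completely.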

Legend:
Assay in all cases: growth of human tumour cells (NCI), 48 h
[1] = system: CCRF-CEM leukemia
[2] = system: HT29 colon
[3] = system: IGROV1 ovarian
[4] = system: KM12 colon
[5] = system: MALME-3M melanoma
[6] = system: MDA-MB-435
[7] = system: NCI-H226 lung
[8] = system: OVCAR-4 ovarian
[9] = system: SR leukemia
[10] = system: UO-31 renal

Work on `CCc1nc2ccc(N=Nc3c(O)ccc4ccccc34)cc2[nH]1` yielded a TGI [1] of 26.4 µM, a TGI [2] of 44.1 µM and a TGI [3] of 36.8 µM. For the same molecule, the TGI [4] was 31.9 µM, the TGI [5] was 33.6 µM and the TGI [6] was 67.5 µM. The TGI [7] was 41.1 µM, the TGI [8] was 28.4 µM and the TGI [9] was 24.7 µM. The TGI [10] was 34.5 µM.

For `Nc1nc(/C=C\c2ccccc2)nc(N2CCN(c3ccccc3)CC2)n1`, the GI50 [1] was 37.3 µM, the TGI [1] was over 100 µM and the GI50 [2] was 18 µM. It also gave a TGI [2] of 41.8 µM, a GI50 [3] of 22.9 µM and a TGI [3] of 69.8 µM. For the same molecule, the GI50 [4] was 27.2 µM, the TGI [4] was 60.6 µM and the GI50 [6] was 28.4 µM. For the same molecule, the TGI [6] was 70.2 µM, the GI50 [7] was 27.9 µM and the TGI [7] was 94.5 µM. For the same molecule, the GI50 [8] was 37.2 µM, the TGI [8] was over 100 µM and the GI50 [9] was 35.8 µM. For the same molecule, the TGI [9] was over 100 µM, the GI50 [10] was 38.4 µM and the TGI [10] was over 100 µM.

`Cc1cc(-c2cc(O)ccc2Cl)cc2nnc(Nc3ccc(OCCN4CCCC4)cc3)nc12` showed a GI50 [1] of 0.242 µM, a TGI [1] of 0.634 µM and a GI50 [2] of 1.93 µM. The TGI [2] was 3.91 µM, the GI50 [3] was 1.63 µM and the TGI [3] was 3.57 µM. It also gave a GI50 [4] of 0.617 µM, a TGI [4] of 1.32 µM and a GI50 [5] of 0.19 µM. The TGI [5] was 0.426 µM, the GI50 [6] was 0.175 µM and the TGI [6] was 0.321 µM. The GI50 [7] was 4.71 µM, the TGI [7] was 7.12 µM and the GI50 [8] was 0.615 µM. For the same molecule, the TGI [8] was 1.3 µM, the GI50 [9] was 0.239 µM and the TGI [9] was 0.595 µM. The GI50 [10] was 1.3 µM and the TGI [10] was 2.73 µM.

Work on `NS(=O)(=O)c1cc(C(=O)O)c(O)c2ccccc12` yielded a TGI [1] of over 100 µM, a TGI [2] of over 100 µM and a TGI [3] of over 100 µM. For the same molecule, the TGI [4] was over 100 µM, the TGI [5] was over 100 µM and the TGI [6] was over 100 µM. The TGI [7] was over 100 µM, the TGI [8] was over 100 µM and the TGI [9] was over 100 µM. The TGI [10] was over 100 µM.

Work on `CC(=O)NNc1nc(C)c(C(/C=C/c2ccccc2O)=N/N=C(N)N)s1` yielded a TGI [1] of over 100 µM, a TGI [2] of over 100 µM and a TGI [3] of over 100 µM. The TGI [4] was over 100 µM, the TGI [5] was over 100 µM and the TGI [6] was over 100 µM. The TGI [7] was over 100 µM, the TGI [8] was over 100 µM and the TGI [9] was over 100 µM. It also gave a TGI [10] of over 100 µM.

`O=c1c(Cl)c(Cl)cnn1CCCl` was tested, and the TGI [1] was 4.84 µM, the TGI [2] was 10.8 µM and the TGI [3] was 3.85 µM. The TGI [4] was 29.7 µM, the TGI [5] was 7.14 µM and the TGI [6] was 10.6 µM. For the same molecule, the TGI [7] was 52.4 µM, the TGI [8] was 3.14 µM and the TGI [10] was 10.7 µM.

Work on `C=CCC(N[C@H](CO)c1ccccc1)c1cn(Cc2ccccc2Cl)c(=O)n(Cc2ccccc2Cl)c1=O` (stereo partly specified) yielded a GI50 [1] of 10.6 µM, a TGI [1] of 42.5 µM and a GI50 [2] of 11 µM. The TGI [2] was over 100 µM, the GI50 [3] was 13.5 µM and the TGI [3] was 66.3 µM. For the same molecule, the GI50 [4] was 17.5 µM, the TGI [4] was 73.3 µM and the GI50 [5] was 34.5 µM. For the same molecule, the TGI [5] was 81 µM, the GI50 [6] was 15.9 µM and the TGI [6] was 38.6 µM. For the same molecule, the GI50 [7] was 13.7 µM, the TGI [7] was 49.8 µM and the GI50 [8] was 26.6 µM. For the same molecule, the TGI [8] was over 100 µM, the GI50 [10] was 6.89 µM and the TGI [10] was over 100 µM.

`CC(C)COc1nc2c(c(=O)n(C)c(=O)n2C)n1C` was tested, and the GI50 [1] was over 100 µM, the TGI [1] was over 100 µM and the GI50 [3] was 0.544 µM. The TGI [3] was over 100 µM, the GI50 [4] was over 100 µM and the TGI [4] was over 100 µM. For the same molecule, the GI50 [5] was over 100 µM, the TGI [5] was over 100 µM and the GI50 [6] was over 100 µM. For the same molecule, the TGI [6] was over 100 µM, the GI50 [7] was over 100 µM and the TGI [7] was over 100 µM. For the same molecule, the GI50 [8] was over 100 µM, the TGI [8] was over 100 µM and the GI50 [9] was over 100 µM. For the same molecule, the TGI [9] was over 100 µM, the GI50 [10] was over 100 µM and the TGI [10] was over 100 µM.

Molecule `O=C(Nc1ccc(Cl)cc1Cl)OC(Cn1cncn1)c1ccc(Cl)cc1Cl` (stereo unspecified) has a TGI [1] of over 100 µM, a TGI [2] of 28.5 µM and a TGI [3] of 31.4 µM. The TGI [4] was 31 µM, the TGI [5] was 29.3 µM and the TGI [7] was 39 µM. The TGI [8] was 28 µM, the TGI [9] was over 100 µM and the TGI [10] was 26 µM.

With `COc1c(-c2ccccc2)nc2ccc(Oc3ccccc3)nn12` the TGI [1] was 99.3 µM, the TGI [2] was over 100 µM and the TGI [3] was over 100 µM. For the same molecule, the TGI [4] was over 100 µM, the TGI [5] was over 92.6 µM and the TGI [7] was 98.1 µM. For the same molecule, the TGI [8] was over 71.3 µM, the TGI [9] was over 100 µM and the TGI [10] was over 100 µM.

For `O=C1/C(=C/c2ccc(Cl)cc2)CNC/C1=C\c1ccc(Cl)cc1`, the GI50 [1] was 0.596 µM and 1.32 µM, the TGI [1] was 10.3 µM and > 100 µM and the GI50 [2] was 0.254 µM and 1.28 µM. For the same molecule, the TGI [2] was 0.697 µM and 3.38 µM, the TGI [3] was 4.15 µM and 3.49 µM and the TGI [4] was 3.07 µM. The TGI [5] was 20.5 µM and 16.8 µM, the TGI [6] was 13.7 µM and the GI50 [8] was 1.52 µM. The TGI [9] was over 100 µM, the GI50 [10] was 1.62 µM and 3.48 µM and the TGI [10] was 2.98 µM and 6.5 µM.

`CC1(C)CCCC(C)(C2CCC3(C)C2C(O)CC2C4(C)CCC(O)C(C)(C)C4CCC23C)O1` (stereo unspecified) showed a TGI [1] of over 100 µM, a TGI [2] of over 100 µM and a TGI [3] of over 100 µM. It also gave a TGI [4] of over 100 µM, a TGI [5] of over 100 µM and a TGI [6] of over 100 µM. For the same molecule, the TGI [7] was over 100 µM, the TGI [8] was over 100 µM and the TGI [9] was over 100 µM. It also gave a TGI [10] of over 100 µM.

Molecule `COC(=O)[C@@H]1Cc2c([nH]c3ccccc23)[C@H](c2ccccc2)N1` has a TGI [1] of over 100 µM, a TGI [2] of over 100 µM and a TGI [3] of 92 µM. For the same molecule, the TGI [4] was over 100 µM, the TGI [5] was over 100 µM and the TGI [7] was over 100 µM. The TGI [8] was over 100 µM, the TGI [9] was over 100 µM and the TGI [10] was 73.9 µM.

With `CCCCCCCCCC[C@H](O)[C@H](O)CC[C@@H](O)[C@H]1CC[C@@H]([C@H]2CC[C@H](CCCCCCC[C@@H](O)CC3=C[C@H](C)OC3=O)O2)O1` the TGI [2] was 5.64 µM, the GI50 [3] was 25.8 µM and the GI50 [4] was 27.7 µM. For the same molecule, the TGI [4] was over 100 µM, the TGI [5] was 48.3 µM and the GI50 [6] was 28.7 µM. It also gave a GI50 [7] of 21.2 µM, a TGI [8] of 78 µM and a GI50 [10] of 16.6 µM. The TGI [10] was 4.18 µM and 32.3 µM.

`COc1ccc(/C=C2/SC(Nc3nc(-c4nc(NC5=NC(=O)/C(=C\c6ccc(OC)cc6)S5)sc4C)c(C)s3)=NC2=O)cc1` was tested, and the GI50 [1] was 1.68 µM, the TGI [1] was over 50 µM and the GI50 [2] was 1.99 µM. It also gave a TGI [2] of over 50 µM, a GI50 [3] of 5.26 µM and a TGI [3] of over 50 µM. The GI50 [4] was 0.196 µM, the TGI [4] was 5.77 µM and the GI50 [6] was 0.143 µM. For the same molecule, the TGI [6] was 0.633 µM, the GI50 [7] was 4.98 µM and the TGI [7] was 24.9 µM. For the same molecule, the GI50 [9] was 0.14 µM, the TGI [9] was over 50 µM and the GI50 [10] was 4.27 µM. The TGI [10] was over 32.2 µM.

`COc1ccc(OC)c(/C=N/N=C(\N)NO)c1` gave a TGI [1] of over 100 µM, a TGI [2] of over 100 µM and a TGI [3] of over 100 µM. The TGI [4] was over 100 µM, the TGI [5] was over 100 µM and the TGI [7] was over 100 µM. For the same molecule, the TGI [8] was over 100 µM, the TGI [9] was over 100 µM and the TGI [10] was 60.3 µM.

For `N/N=C(/Cc1nc2ccc(C(=O)c3ccccc3)cc2[nH]c1=O)C(=O)Nc1ccc([N+](=O)[O-])cc1[N+](=O)[O-]`, the GI50 [1] was over 100 µM, the TGI [1] was over 100 µM and the GI50 [2] was over 100 µM. The TGI [2] was over 100 µM, the GI50 [3] was over 100 µM and the TGI [3] was over 100 µM. The TGI [4] was over 100 µM, the TGI [5] was over 100 µM and the GI50 [7] was over 100 µM. The TGI [7] was over 100 µM, the TGI [8] was 71.5 µM and the GI50 [9] was over 100 µM. It also gave a TGI [9] of over 100 µM and a TGI [10] of over 100 µM.
